Counter-ions that a name gives are not always drawn. Marks after values point to notes of the source that are not given here.
Experiments:
[1] = molecular target: T1, Thrombin (from human plasma) (Homo sapiens, UniProt P00734); assay: on-chip thrombin inhibition assay (S-2238 hydrolysis, absorbance 405 nm); type: biochemical; conditions: for thrombin
T1 construct: Thrombin (from human plasma); purchased Sigma-Aldrich; host or cells: human plasma
Protocol: To enhance the performance of the on-chip assay, experimental parameters such as concentrations of enzymes and substrates, substrate reaction time, and incubation time of samples and enzymes were stepwise optimized. The activity of thrombin was determined by measuring the hydrolysis of chromogenic substrate S-2238 (HD-Phe-Pip-Arg-pNA) at 405 nm. As depicted in Fig. 2a, the absorbance increased rapidly along with the elevated concentrations of thrombin, while it reached a plateau at 0.5 U/mL. […] Moreover, it was clear from Fig. 2d that the maximum inhibitory effect of QSYQ sample (I1 of Table 1 in this assay) on thrombin was observed after 60 min of incubation. Therefore, to achieve favorable response and prevent signal saturation, optimal assay conditions for thrombin were determined to be 0.2 U/mL, 0.31 mM, 30 min and 60 min for the final concentrations of thrombin and S-2238, substrate reaction time and incubation time, respectively. […] In this assay, the concentrations of ACE and FAPGG were finally set at 0.027 U/mL and 0.72 mM, where the background value was lower and the reaction time was relatively shorter (30 min).
The optimized protocol was first applied to assess the quality of 11 batches of QSYQ intermediates (Table 1). Enzyme inhibition (in percentages) was employed as an indicator of drug quality and calculated according to the following equations: thrombin inhibition (%) = [1 − (AQSYQ/Ablank)] × 100; ACE inhibition (%) = [1 − (ΔAQSYQ/ΔAblank)] × 100; where AQSYQ and Ablank were the absorbance of the test sample and the blank sample after the enzymatic reaction (the background value was subtracted), and ΔAQSYQ and ΔAblank were the absorbance decrease between 0 min and 30 min of the samples. A scatter plot was generated to display the inhibition result of thrombin and ACE simultaneously. […] Moreover, artificial abnormal samples I6, I7 and I8, each with one abnormal (pre-extracted) herb, presented relatively lower inhibitions compared with I1.
(§1) Thrombin (from human plasma), ACE (from rabbit lung), FAPGG and captopril were purchased from Sigma-Aldrich (St. Louis, USA). S-2238 was obtained from Aglyco (Beijing, China). AEBSF-HCl was purchased from Selleckchem (Houston, USA). Trizma base (Tris) was obtained from Sangon Biotech (Shanghai, China) and dimethyl sulfoxide (DMSO) from J&K Scientific (Beijing, China). All other chemicals were purchased from Sinopharm Chemical (Shanghai, China) unless otherwise indicated. 0.2 M Phosphate buffer (PB, pH 6.5), and 50 mM Tris-HCl buffer (200 mM NaCl, pH 8.3) were prepared as assay buffers for thrombin and ACE, respectively.
MBs (10 mg/mL) were diluted 10 times in PB or Tris-HCl buffer, and 10 μL of the diluted MBs (1 mg/mL) were injected into one channel of the chip using a syringe infusion pump (Harvard Apparatus, USA) and retained by an external magnet. Then, 10 μL of thrombin or ACE solution was added and incubated with MBs for two hours at room temperature to form enzyme-MB complexes. The magnet was manually controlled to move MBs back and forth to enhance the ratio of reaction. Subsequently, MBs were washed twice in assay buffer and magnetically transferred to the other channel through the fluidic bridge, whose opening and closing was controlled by a pneumatic valve. Next, 10 μL of sample solutions of tested drug and 10 μL of enzymatic substrate were sequentially infused to the channel by the pump and incubated with the enzyme. When the enzymatic reaction was finished, the MBs were retained in the channel, and air was injected into the channel from the inlet using a syringe to push all the reacted solution to a 384-well plate. The absorbance of the solution was then monitored at 405 nm (for S-2238) or 340 nm (for FAPGG) using an Infinite F200 spectrophotometer (Tecan, Männedorf, Switzerland). Moreover, after detection, the reaction channel was washed three times by assay buffer to remove unbound constituents. […]

ACE (from rabbit lung) [2] = molecular target: T2, ACE (from rabbit lung) (Oryctolagus cuniculus, UniProt P12822); assay: on-chip ACE inhibition assay (FAPGG hydrolysis, absorbance decrease 340 nm); type: biochemical; design: key to IC50 (μM) or inhibition rate: /: No obvious inhibition observed; conditions: for IC50 (μM) or inhibition rate: symbol / = no obvious inhibition
T2 construct: ACE (from rabbit lung); purchased Sigma-Aldrich; host or cells: rabbit lung
T2 sequence (P12822 34-1310): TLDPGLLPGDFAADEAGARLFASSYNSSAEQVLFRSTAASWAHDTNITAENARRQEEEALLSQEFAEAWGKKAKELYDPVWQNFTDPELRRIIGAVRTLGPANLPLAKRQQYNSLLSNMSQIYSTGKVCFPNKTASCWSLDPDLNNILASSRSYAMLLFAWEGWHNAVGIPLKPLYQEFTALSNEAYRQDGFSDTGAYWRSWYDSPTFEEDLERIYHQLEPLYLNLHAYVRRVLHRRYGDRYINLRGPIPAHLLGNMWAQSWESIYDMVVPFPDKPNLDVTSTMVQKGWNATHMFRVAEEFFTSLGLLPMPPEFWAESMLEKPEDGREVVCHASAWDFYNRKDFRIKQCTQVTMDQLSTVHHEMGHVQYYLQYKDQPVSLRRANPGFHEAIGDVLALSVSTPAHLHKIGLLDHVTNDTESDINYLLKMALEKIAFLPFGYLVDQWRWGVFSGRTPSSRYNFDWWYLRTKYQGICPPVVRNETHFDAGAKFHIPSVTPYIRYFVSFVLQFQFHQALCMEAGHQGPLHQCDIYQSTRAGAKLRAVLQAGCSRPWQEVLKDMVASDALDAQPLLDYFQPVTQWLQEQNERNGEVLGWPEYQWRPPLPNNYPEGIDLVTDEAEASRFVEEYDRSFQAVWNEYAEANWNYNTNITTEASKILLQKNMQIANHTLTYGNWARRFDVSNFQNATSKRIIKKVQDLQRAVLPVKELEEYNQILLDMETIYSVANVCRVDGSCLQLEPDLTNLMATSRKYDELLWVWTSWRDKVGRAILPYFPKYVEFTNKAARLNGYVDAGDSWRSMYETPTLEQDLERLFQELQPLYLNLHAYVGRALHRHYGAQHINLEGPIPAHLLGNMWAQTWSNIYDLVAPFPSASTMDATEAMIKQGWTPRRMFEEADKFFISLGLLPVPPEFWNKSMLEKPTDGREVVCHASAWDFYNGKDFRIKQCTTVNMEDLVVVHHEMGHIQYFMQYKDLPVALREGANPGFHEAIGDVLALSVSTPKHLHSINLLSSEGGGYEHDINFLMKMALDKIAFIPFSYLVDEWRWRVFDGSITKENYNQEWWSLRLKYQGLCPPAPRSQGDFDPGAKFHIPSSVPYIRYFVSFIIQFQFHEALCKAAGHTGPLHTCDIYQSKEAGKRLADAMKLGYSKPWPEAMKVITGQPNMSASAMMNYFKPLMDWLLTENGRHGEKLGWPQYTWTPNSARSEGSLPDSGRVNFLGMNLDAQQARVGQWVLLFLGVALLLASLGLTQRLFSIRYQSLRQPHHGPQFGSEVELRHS
Protocol: To enhance the performance of the on-chip assay, experimental parameters such as concentrations of enzymes and substrates, substrate reaction time, and incubation time of samples and enzymes were stepwise optimized.
The optimized protocol was first applied to assess the quality of 11 batches of QSYQ intermediates (Table 1). Enzyme inhibition (in percentages) was employed as an indicator of drug quality and calculated according to the following equations: thrombin inhibition (%) = [1 − (AQSYQ/Ablank)] × 100; ACE inhibition (%) = [1 − (ΔAQSYQ/ΔAblank)] × 100; where AQSYQ and Ablank were the absorbance of the test sample and the blank sample after the enzymatic reaction (the background value was subtracted), and ΔAQSYQ and ΔAblank were the absorbance decrease between 0 min and 30 min of the samples.
as §1, with “S-2238 was obtained from Aglyco (Beijing, China).” left out
MBs (10 mg/mL) were diluted 10 times in PB or Tris-HCl buffer, and 10 μL of the diluted MBs (1 mg/mL) were injected into one channel of the chip using a syringe infusion pump (Harvard Apparatus, USA) and retained by an external magnet. Then, 10 μL of thrombin or ACE solution was added and incubated with MBs for two hours at room temperature to form enzyme-MB complexes. The magnet was manually controlled to move MBs back and forth to enhance the ratio of reaction. Subsequently, MBs were washed twice in assay buffer and magnetically transferred to the other channel through the fluidic bridge, whose opening and closing was controlled by a pneumatic valve. Next, 10 μL of sample solutions of tested drug and 10 μL of enzymatic substrate were sequentially infused to the channel by the pump and incubated with the enzyme. When the enzymatic reaction was finished, the MBs were retained in the channel, and air was injected into the channel from the inlet using a syringe to push all the reacted solution to a 384-well plate. […] Moreover, after detection, the reaction channel was washed three times by assay buffer to remove unbound constituents. 20 μL of 80% aqueous methanol was then injected and incubated with MBs for one hour to dissociate the bound constituents. The resulting solutions of replicates were combined, evaporated by a centrifugal evaporator, reconstituted in 80% aqueous methanol, centrifuged at 10,000 rpm for 10 min, and analyzed by LC-MS for chemical identification.

ACE (from rabbit lung) [3] = molecular target: T2, ACE (from rabbit lung); assay: on-chip affinity screening, binding degree by LC-MS peak area vs protein-free control (ACE); conditions: for ACE; [(As − Ac)/As] × 100, sample vs protein-free control, EIC peak area
Excerpt: In addition to quality assessment, the microfluidic chip can also function as “affinity chromatography” to identify bioactive constituents from botanical drugs in a convenient and efficient manner. After the bioassay, the bound phytochemicals were dissociated from the enzymes and accurately identified by LC-MS. The material used for the chambers in microfluidic system, polydimethylsiloxane (PDMS), is apt to adsorb small molecules nonspecifically, thus a protein-free control was applied to reflect the degree of nonspecific binding of compounds to the chip. Peak areas were obtained from the extracted ion chromatography (EIC) in an ion-trap mass spectrometry (IT-MS), and binding degree (binding degree % = [(As − Ac)/As] × 100, where As and Ac were the peak area in the sample and control, respectively) was calculated to indicate binding specificity. […] All these peaks were unambiguously confirmed via comparisons with chemical standards in terms of retention time and mass spectra (Table 2), and five thrombin inhibitors (danshensu, salvianolic acid B, salvianolic acid C, rosmarinic acid and ginsenoside Rg1) and six ACE inhibitors (astragaloside IV, ononin, formononetin, calycosin, danshensu and salvianolic acid B) were preliminarily identified. […] Enzyme inhibition assays of these hit compounds were then performed to verify the screening results. […] Compounds showing an inhibition rate over 70% were subjected to IC50 measurement.
MBs (10 mg/mL) were diluted 10 times in PB or Tris-HCl buffer, and 10 μL of the diluted MBs (1 mg/mL) were injected into one channel of the chip using a syringe infusion pump (Harvard Apparatus, USA) and retained by an external magnet. Then, 10 μL of thrombin or ACE solution was added and incubated with MBs for two hours at room temperature to form enzyme-MB complexes. The magnet was manually controlled to move MBs back and forth to enhance the ratio of reaction. Subsequently, MBs were washed twice in assay buffer and magnetically transferred to the other channel through the fluidic bridge, whose opening and closing was controlled by a pneumatic valve. Next, 10 μL of sample solutions of tested drug and 10 μL of enzymatic substrate were sequentially infused to the channel by the pump and incubated with the enzyme. When the enzymatic reaction was finished, the MBs were retained in the channel, and air was injected into the channel from the inlet using a syringe to push all the reacted solution to a 384-well plate. The absorbance of the solution was then monitored at 405 nm (for S-2238) or 340 nm (for FAPGG) using an Infinite F200 spectrophotometer (Tecan, Männedorf, Switzerland). Moreover, after detection, the reaction channel was washed three times by assay buffer to remove unbound constituents. 20 μL of 80% aqueous methanol was then injected and incubated with MBs for one hour to dissociate the bound constituents. The resulting solutions of replicates were combined, evaporated by a centrifugal evaporator, reconstituted in 80% aqueous methanol, centrifuged at 10,000 rpm for 10 min, and analyzed by LC-MS for chemical identification.
An Agilent 1100 HPLC system (Agilent Technologies, Waldbronn, Germany) coupled with an LCQ Deca XP^plus IT-MS (Thermo Finnigan, San Jose, CA, USA) equipped with an electrospray ionization (ESI) interface was employed for structure elucidation of the bounded constituents. The analysis was performed in negative ionization mode under following operation parameters: scan range m/z 100–1500; capillary voltage −15 V; source voltage −3 kV; capillary temperature 350 °C; sheath gas (N2) 60 arb; auxiliary gas (N2) 20 arb.

IC50 (μM) or inhibition rate (ACE (from rabbit lung) [2]; for ACE) | Binding degree (%) (ACE (from rabbit lung) [3]) | ACE inhibition (in words) (ACE (from rabbit lung) [2]; at tested concentrations) | inhibition rate (ACE (from rabbit lung) [2]; for ACE, maximum inhibition rate observed in the assay) | Compound | IC50 [1]
– | – | – | – | NCCc1ccc(S(=O)(=O)F)cc1 [AEBSF-HCl, reference compound] | 3.91 µM
/^g | 19.1^d % | – | – | COc1ccc(-c2coc3cc(O)ccc3c2=O)cc1O [Calycosin] | –
/^g | 53.8^d % | – | – | COc1ccc(-c2coc3cc(O)ccc3c2=O)cc1 [Formononetin] | –
– | 52.6^d % | showed ACE inhibitions | 30.6%^d | COc1ccc(-c2coc3cc(O[C@@H]4O[C@H](CO)[C@@H](O)[C@H](O)[C@H]4O)ccc3c2=O)cc1 [Ononin] | –

Compound | IC50 (μM) or inhibition rate (ACE (from rabbit lung) [2]; for ACE) | Binding degree (%) (ACE (from rabbit lung) [3]) | ACE inhibition (in words) (ACE (from rabbit lung) [2]; at tested concentrations) | inhibition rate (ACE (from rabbit lung) [2]; for ACE, maximum inhibition rate observed in the assay) | IC50 [1]
CC(C)(O)[C@@H]1CC[C@](C)([C@H]2[C@@H](O)C[C@@]3(C)[C@@H]4C[C@H](O[C@@H]5O[C@H](CO)[C@@H](O)[C@H](O)[C@H]5O)[C@H]5C(C)(C)[C@@H](O[C@@H]6OC[C@@H](O)[C@H](O)[C@H]6O)CC[C@@]56C[C@@]46CC[C@]23C)O1 [Astragaloside IV] | /^g | 28.3^d % | – | – | –

Source: publication PMC5612938, “A multiple biomarker assay for quality assessment of botanical drugs using a versatile microfluidic chip” (Scientific Reports, 2017)
